Molecules are shown by their SMILES.

The results in this text go back to patent US12662507B2, “Cytosine-type bridged nucleoside amidite crystals and method for producing same” (Yamasa Corporation, priority 2020, dated 2026).

This data set is described as follows: Stability test: storage at 50° C. in tightly sealed glass vial, HPLC purity. It counts as physicochemical. As to the method:
As used herein, the term “decomposition degree” is defined as a value obtained by subtracting a […] when the stability test is performed for a certain period of time under the following conditions. The purity can be determined by HPLC. A higher decomposition degree means that the decomposition progressed and the purity decreased.
• Temperature: 50° C.; • Storage conditions: 20 mg of crystal is placed in a glass vial and stored in a tightly sealed state; (HPLC Conditions) • Column: YMC-Triart C18, 150×4.6 mm I.D. (manufactured by YMC); • Eluent: 5 mM triethylammonium acetate (pH 7.0) containing 80 vol % acetonitrile; and • Detection method: detection by UV 280 nm.
• Temperature: 50° C.; • Storage conditions: 20 mg of each of crystals A to C or amorphous form was placed in a glass vial and stored in a tightly sealed state; and • Sampling time: after 1, 2, 3, 4, 6, and 20 (days), each specimen was sampled and subjected to HPLC analysis; (HPLC Conditions) • Column: YMC-Triart C18, 150×4.6 mm I.D. (manufactured by YMC) • Eluent: 5 mM triethylammonium acetate (pH 7.0) containing 80 vol % acetonitrile; and • Detection method: detection by UV 280 nm.
The leftmost column in the table indicates the number of elapsed days, and the column “Example 1 (Crystal A)” indicates the HPLC purity of the crystal A of the 5-methylcytosine-type bridged nucleoside amidite obtained in Example 1 (R^1=a benzamido group, R^2=a methyl group, R^3=a dimethoxytrityl group) after the corresponding number of elapsed days, and the column “Example 2 (crystal B)” indicates the HPLC purity of the crystal B of the 5-methylcytosine-type bridged nucleoside amidite obtained in Example 2 (R^1=a benzamido group, R^2=a methyl group, R^3=a dimethoxytrityl group) after the corresponding number of elapsed days, and the column “Example 3 (Crystal C) indicates the HPLC purity of the crystal C of 5-methylcytosine-type bridged nucleoside amidite obtained in Example 3 (R^1=a benzamido group, R^2=a methyl group, R^3=a dimethoxytrityl group) after the corresponding number of elapsed days, and the column “Control” indicates the HPLC purity of the amorphous form used as a control after the corresponding number of elapsed days. In the table, the cells marked by “-” indicate that no measurement was performed.

Setting [1] is: HPLC purity on day 0 minus HPLC purity after 20 days at 50° C.
[2] abbreviates: after 1 day at 50° C., sealed glass vial.
Where [3] appears, read: after 2 days at 50° C., sealed glass vial.
[4] abbreviates: after 3 days at 50° C., sealed glass vial.
[5] abbreviates: after 6 days at 50° C., sealed glass vial.
Where [6] appears, read: after 20 days at 50° C., sealed glass vial.
Where [7] appears, read: day 0 (start of stability test at 50° C.).
Setting [8] is: after 4 days at 50° C., sealed glass vial.

Turning to `COc1ccc(C(OCC23COC(C(n4cc(C)c(NC(=O)c5ccccc5)nc4=O)O2)C3OP(OCCC#N)N(C(C)C)C(C)C)(c2ccccc2)c2ccc(OC)cc2)cc1` (centres unmarked) [Control, N^4-benzoyl-5′-O-(4,4′-dimethoxytrityl)-2′-O-4′-C-methylene-5-methylcytidine-3′-O—[O-(2-cyanoethyl)-N,N-diisopropylphosphoramidite], reference compound], the “Decomposition Degree” value is recorded as 6.6 Δ % under setting [1] and 6.6% (stored at 50° C. for 20 days, in HPLC purity). Besides, the HPLC purity by setting is: under setting [2], 98.2%; under setting [3], 97.9%; under setting [4], 97.9%; under setting [5], 96.9%; under setting [6], 92.1%; under setting [7], 98.7%.
For `COc1ccc(C(OCC23COC(C(n4cc(C)c(NC(=O)c5ccccc5)nc4=O)O2)C3OP(OCCC#N)N(C(C)C)C(C)C)(c2ccccc2)c2ccc(OC)cc2)cc1` (centres unmarked) [Example 1, N^4-benzoyl-5′-O-(4,4′-dimethoxytrityl)-2′-O-4′-C-methylene-5-methylcytidine-3′-O—[O-(2-cyanoethyl)-N,N-diisopropylphosphoramidite]], under setting [1], the “Decomposition Degree” value was 0.7 Δ %. Also, the HPLC purity came out at 98.4% under setting [2]; 98.1% under setting [3]; 98.3% under setting [4]; 98.1% under setting [5]; 98.1% under setting [6]; 98.8% under setting [7].
For the molecule `COc1ccc(C(OCC23COC(C(n4cc(C)c(NC(=O)c5ccccc5)nc4=O)O2)C3OP(OCCC#N)N(C(C)C)C(C)C)(c2ccccc2)c2ccc(OC)cc2)cc1` (centres unmarked) [Example 2, N^4-benzoyl-5′-O-(4,4′-dimethoxytrityl)-2′-O-4′-C-methylene-5-methylcytidine-3′-O—[O-(2-cyanoethyl)-N,N-diisopropylphosphoramidite]], the “Decomposition Degree” value under setting [1] is 0.4 Δ %. Also, the HPLC purity is on record as 98.7% under setting [2]; 98.6% under setting [3]; 98.6% under setting [8]; 98.5% under setting [5]; 98.3% under setting [6]; 98.7% under setting [7].
For the molecule `COc1ccc(C(OCC23COC(C(n4cc(C)c(NC(=O)c5ccccc5)nc4=O)O2)C3OP(OCCC#N)N(C(C)C)C(C)C)(c2ccccc2)c2ccc(OC)cc2)cc1` (centres unmarked) [Example 3, N^4-benzoyl-5′-O-(4,4′-dimethoxytrityl)-2′-O-4′-C-methylene-5-methylcytidine-3′-O—[O-(2-cyanoethyl)-N,N-diisopropylphosphoramidite]], the “Decomposition Degree” value under setting [1] is on record as 0.5 Δ %. In addition, the HPLC purity is on record as 98.7% under setting [2]; 98.6% under setting [3]; 98.5% under setting [8]; 98.5% under setting [5]; 98.1% under setting [6]; 98.6% under setting [7].
